Assay results: patent publication US8158587B2, “Compound having histone deacetylase-inhibiting activity, and pharmaceutical composition comprising the compound as an active ingredient” (Kyushu Institute of Technology, priority 2006, dated 2012)
Like-named read-outs stand apart in the source and are kept apart here. Non-standard residues stand in square brackets, D forms with d. Residues, ends and D or L forms follow the SMILES beside them. Ala(5-hexenyl) = C=CCCCCC[C@H](N)C(=O)O; Aib = CC(C)(N)C(=O)O

Tests used:
human HDAC1 = biological target: T1, human HDAC1 (Homo sapiens, UniProt Q13547); experiment: HDAC-inhibiting activity, coumarin-labeled acetylated histone peptide assay; assay type: biochemical; settings: human HDAC1 from transfected 293T cells; 37° C., 30 minutes
T1 construct: made in house; host or cells: 293T cells (transient transfection, anti-FLAG immunoprecipitation, FLAG peptide elution)
Protocol: (§1) In carrying out HDAC-inhibiting activity measurements, HDAC solutions were prepared in the following manner. In each 100-mm dish, there were sowed 1×10^7 293T cells and, after 24 hours, they were transfected with a vector (5 μg) expressing human HDAC1 or HDAC4 or murine HDAC6 using the LipofectAmine 2000 reagent (Invitrogen). The human HDAC1 expression vector used was pcDNA3-HD1 (Yang, W. M., Yao, Y. L., Sun, J. M., Davie, J. R. & Seto, E. (1997) J. Biol. Chem. 272, 28001-28007), the human HDAC4 expression vector used was pcDNA3-HD4 (Fischle, W., Emiliani, S., Hendzel, M. J., Nagase, T., Nomura, N., Voelter, W. & Verdin, E. (1999) J. Biol. Chem. 274, 11713-11720), and the murine HDAC6 expression vector used was pcDNA3-mHDA2/HDAC6 (Verdel, A. & Khochbin, S. (1999) J. Biol. Chem. 274, 2440-2445).
(§2) After 24 hours of incubation, cells were recovered, washed with PBS, suspended in lysis buffer (50 mM Tris-HCl (pH 7.5), 120 mM NaCl, 5 mM EDTA, 0.5% Nonidet P-40), and sonicated. The supernatant was collected by centrifugation and then deprived of nonspecific proteins using Protein A/G plus agarose beads (Santa Cruz Biotechnologies, Inc.). Thereafter, anti-FLAG M2 antibody (Sigma-Aldrich Inc.) was added, and the reaction was allowed to proceed at 4° C. for 2 hours.
(§3) To this were added agarose beads, the reaction was allowed to proceed at 4° C. for 3 hours, and the agarose beads were washed three times with lysis buffer and then once with HD buffer (20 mM Tris-HCl (pH 8.0), 150 mM NaCl, 10% glycerol). The protein bound to the agarose beads was recovered by 1 hour of incubation with FLAG peptide (40 μg) (Sigma-Aldrich Inc.) in HD buffer (200 μl) at 4° C., and the liquid recovered was used, as a reactant solution, in the HDAC-inhibiting activity measurement described below.
(§4) HDAC-inhibiting activity evaluation in each in vitro system was made as follows. Each test compound was dissolved in DMSO, a stock solution with a concentration of 10 mM was thus prepared and this was used as an inhibitor stock solution. The assay was carried out by incubating the HDAC solution and a coumarin-labeled acetylated histone peptide solution in the presence of the test compound at 37° C. for 30 minutes (reaction volume 20 μl). To the reaction mixture was added 30 μl of trypsin, and the aminomethylcoumarin released by the enzymatic reaction was assayed using a fluorescent plate reader. In a negative control assay, no inhibitor was added to the reaction system and the same procedure was carried out.

murine HDAC6 = biological target: T2, murine HDAC6 (Mus musculus, UniProt Q9Z2V5); experiment: as above; assay type: biochemical; settings: murine HDAC6 from transfected 293T cells; 37° C., 30 minutes
T2 construct: made in house; host or cells: 293T cells (transient transfection, anti-FLAG immunoprecipitation, FLAG peptide elution)
T2 sequence (Q9Z2V5 1-1149): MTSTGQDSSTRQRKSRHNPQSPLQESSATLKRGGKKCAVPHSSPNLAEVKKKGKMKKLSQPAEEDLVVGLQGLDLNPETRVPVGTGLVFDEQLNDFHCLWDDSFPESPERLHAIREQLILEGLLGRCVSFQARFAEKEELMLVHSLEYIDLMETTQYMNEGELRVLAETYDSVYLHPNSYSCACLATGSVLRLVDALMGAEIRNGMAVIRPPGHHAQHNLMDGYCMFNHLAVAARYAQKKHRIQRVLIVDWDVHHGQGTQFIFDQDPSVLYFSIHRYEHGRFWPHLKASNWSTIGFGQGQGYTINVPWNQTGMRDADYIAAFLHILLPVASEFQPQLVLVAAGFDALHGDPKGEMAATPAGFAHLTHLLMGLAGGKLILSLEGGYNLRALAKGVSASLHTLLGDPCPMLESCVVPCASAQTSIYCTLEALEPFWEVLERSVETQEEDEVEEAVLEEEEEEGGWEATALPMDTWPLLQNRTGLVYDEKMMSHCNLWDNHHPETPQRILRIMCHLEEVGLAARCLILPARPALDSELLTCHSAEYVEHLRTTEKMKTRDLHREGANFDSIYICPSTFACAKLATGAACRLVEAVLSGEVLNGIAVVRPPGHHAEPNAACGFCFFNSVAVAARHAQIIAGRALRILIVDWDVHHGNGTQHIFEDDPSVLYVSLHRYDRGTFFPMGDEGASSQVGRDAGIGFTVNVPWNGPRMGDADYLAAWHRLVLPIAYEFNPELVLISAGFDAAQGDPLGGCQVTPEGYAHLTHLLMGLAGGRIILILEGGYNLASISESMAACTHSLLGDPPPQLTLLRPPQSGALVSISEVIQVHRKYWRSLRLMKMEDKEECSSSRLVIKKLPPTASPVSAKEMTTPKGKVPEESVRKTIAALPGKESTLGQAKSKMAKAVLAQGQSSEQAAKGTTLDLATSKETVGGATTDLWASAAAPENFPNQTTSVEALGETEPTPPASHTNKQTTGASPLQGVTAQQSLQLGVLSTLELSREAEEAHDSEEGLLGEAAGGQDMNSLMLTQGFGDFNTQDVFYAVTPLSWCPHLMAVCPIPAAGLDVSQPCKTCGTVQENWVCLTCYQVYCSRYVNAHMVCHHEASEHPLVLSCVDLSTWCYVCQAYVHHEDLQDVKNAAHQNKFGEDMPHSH
Protocol: as §1, §2, §3, §4

human HDAC4 = biological target: T3, human HDAC4 (Homo sapiens, UniProt P56524); experiment: as above; assay type: biochemical
T3 construct: made in house; host or cells: 293T cells (transient transfection, anti-FLAG immunoprecipitation, FLAG peptide elution)
Protocol: In carrying out HDAC-inhibiting activity measurements, HDAC solutions were prepared in the following manner. […] The human HDAC1 expression vector used was pcDNA3-HD1 (Yang, W. M., Yao, Y. L., Sun, […]. & Seto, E. (1997) J. Biol. Chem. 272, 28001-28007), the human HDAC4 expression vector used was pcDNA3-HD4 ([…]., Nagase, […]. Biol. Chem. 274, 11713-11720), and the murine HDAC6 expression vector used was pcDNA3-mHDA2/HDAC6 ([…]. Biol. Chem. 274, 2440-2445). After 24 hours of incubation, cells were recovered, washed with PBS, suspended in lysis buffer (50 mM Tris-HCl (pH 7.5), 120 mM NaCl, 5 mM EDTA, 0.5% Nonidet P-40), and sonicated. The supernatant was collected by centrifugation and then deprived of nonspecific proteins using Protein A/G plus agarose beads (Santa Cruz Biotechnologies, Inc.). Thereafter, anti-FLAG M2 antibody (Sigma-Aldrich Inc.) was added, and the reaction was allowed to proceed at 4° C. for 2 hours. To this were added agarose beads, the reaction was allowed to proceed at 4° C. for 3 hours, and the agarose beads were washed three times with lysis buffer and then once with HD buffer (20 mM Tris-HCl (pH 8.0), 150 mM NaCl, 10% glycerol). […] HDAC-inhibiting activity evaluation in each in vitro system was made as follows. Each test compound was dissolved in DMSO, a stock solution with a concentration of 10 mM was thus prepared and this was used as an inhibitor stock solution. The assay was carried out by incubating the HDAC solution and a coumarin-labeled acetylated histone peptide solution in the presence of the test compound at 37° C. for 30 minutes (reaction volume 20 μl). To the reaction mixture was added 30 μl of trypsin, and the aminomethylcoumarin released by the enzymatic reaction was assayed using a fluorescent plate reader. In a negative control assay, no inhibitor was added to the reaction system and the same procedure was carried out.

[1] = tested on: human wild type p21 promoter; experiment: p21 promoter assay (luciferase) in MFLL-9 cells; assay type: cell-based; settings: 20 hours, concentration giving 1000% luminescence relative to negative control (100%)
Protocol: As an HDAC-inhibiting activity in an […] system, the following measurement was carried out using the p21 promoter inducing activity as an index. MFLL-9 cells used in the experiment are cells stably retaining a fusion gene (Dr. B. Vogelstaein) from the human wild type p21 promoter and luciferase gene. They were cultured using phenol red-free DMEM supplemented with 10% FBS in a steam-saturated incubator at 37° C. in the presence of 5% carbon dioxide. These MFLL-9 cells were sowed onto a 96-well microplate at a cell density of 2×10^4 cells/well and, after 24 hours of cultivation in 99 μl, per well, of the medium mentioned above, each test compound solution was added, followed by 20 hours of incubation. […] In a negative control, the same procedure was carried out without adding any inhibitor to the reaction system.
Using Luciferase Assay Reagent (Promega), the intensity of the luminescence due to the product of the enzymatic reaction involving luciferase expressed within cells was measured.

[2] = human HDAC4 from transfected 293T cells, 37° C., 30 minutes, read-out: HDAC-inhibiting activity IC50 HDAC4

T3 sequence (P56524 whole entry): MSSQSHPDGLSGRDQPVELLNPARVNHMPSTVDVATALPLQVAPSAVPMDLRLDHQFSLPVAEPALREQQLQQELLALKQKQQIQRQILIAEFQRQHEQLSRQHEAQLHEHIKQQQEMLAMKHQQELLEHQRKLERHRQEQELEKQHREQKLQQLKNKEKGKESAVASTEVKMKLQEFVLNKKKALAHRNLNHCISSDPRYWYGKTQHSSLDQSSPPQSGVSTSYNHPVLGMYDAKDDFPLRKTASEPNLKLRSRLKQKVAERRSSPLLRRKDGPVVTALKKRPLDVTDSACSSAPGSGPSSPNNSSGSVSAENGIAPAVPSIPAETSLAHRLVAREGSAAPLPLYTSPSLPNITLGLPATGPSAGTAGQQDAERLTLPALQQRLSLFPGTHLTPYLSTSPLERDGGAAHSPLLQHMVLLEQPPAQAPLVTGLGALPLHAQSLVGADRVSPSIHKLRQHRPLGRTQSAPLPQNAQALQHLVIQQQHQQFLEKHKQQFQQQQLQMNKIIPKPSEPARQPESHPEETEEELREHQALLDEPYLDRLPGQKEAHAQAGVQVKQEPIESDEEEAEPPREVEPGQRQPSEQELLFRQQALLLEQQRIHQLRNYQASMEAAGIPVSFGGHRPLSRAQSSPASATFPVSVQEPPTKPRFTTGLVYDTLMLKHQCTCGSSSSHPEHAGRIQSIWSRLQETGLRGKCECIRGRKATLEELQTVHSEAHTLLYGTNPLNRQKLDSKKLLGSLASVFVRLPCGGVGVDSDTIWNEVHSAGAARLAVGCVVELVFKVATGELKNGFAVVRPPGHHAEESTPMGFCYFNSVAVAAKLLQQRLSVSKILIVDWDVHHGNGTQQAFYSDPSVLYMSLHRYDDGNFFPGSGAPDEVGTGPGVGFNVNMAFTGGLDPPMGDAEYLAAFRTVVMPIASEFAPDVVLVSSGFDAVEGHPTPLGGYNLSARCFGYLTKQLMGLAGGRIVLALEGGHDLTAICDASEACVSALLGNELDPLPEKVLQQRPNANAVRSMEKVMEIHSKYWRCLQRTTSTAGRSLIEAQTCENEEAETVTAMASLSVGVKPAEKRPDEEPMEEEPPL
T3 sequence (O15379 whole entry, further chain): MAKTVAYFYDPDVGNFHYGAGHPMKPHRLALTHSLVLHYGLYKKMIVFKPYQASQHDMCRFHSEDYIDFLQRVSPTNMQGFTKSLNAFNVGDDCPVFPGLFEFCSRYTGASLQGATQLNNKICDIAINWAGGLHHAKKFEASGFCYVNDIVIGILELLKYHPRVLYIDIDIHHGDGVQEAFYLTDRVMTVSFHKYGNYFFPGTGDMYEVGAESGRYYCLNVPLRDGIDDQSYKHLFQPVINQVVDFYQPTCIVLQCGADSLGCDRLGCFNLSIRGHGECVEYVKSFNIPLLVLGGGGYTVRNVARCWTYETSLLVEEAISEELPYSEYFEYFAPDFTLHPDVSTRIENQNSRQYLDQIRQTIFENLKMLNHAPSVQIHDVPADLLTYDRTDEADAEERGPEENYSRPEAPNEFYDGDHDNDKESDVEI
T1 sequence (Q13547 whole entry): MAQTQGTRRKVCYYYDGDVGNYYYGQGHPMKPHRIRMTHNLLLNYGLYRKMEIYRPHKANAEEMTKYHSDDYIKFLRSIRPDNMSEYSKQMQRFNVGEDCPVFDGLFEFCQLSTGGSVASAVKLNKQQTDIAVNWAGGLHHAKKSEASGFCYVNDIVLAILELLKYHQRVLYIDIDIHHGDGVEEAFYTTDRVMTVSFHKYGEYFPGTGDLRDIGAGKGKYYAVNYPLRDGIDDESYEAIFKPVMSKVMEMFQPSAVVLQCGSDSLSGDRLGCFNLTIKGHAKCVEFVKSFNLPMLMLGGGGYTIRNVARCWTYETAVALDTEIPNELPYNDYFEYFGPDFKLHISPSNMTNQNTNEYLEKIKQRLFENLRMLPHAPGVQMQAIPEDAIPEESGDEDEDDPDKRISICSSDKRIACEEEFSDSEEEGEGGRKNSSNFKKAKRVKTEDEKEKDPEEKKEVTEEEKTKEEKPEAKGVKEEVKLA

SMILES | IC50 (human HDAC1) [nM] | IC50 (murine HDAC6) [nM] | IC50 (human HDAC4; [2]) [nM] | p21 promoter activity EC1000 [1] [µM] | IC50 (human HDAC4) [nM]
CCOCC(=O)CCCCC[C@@H]1NC(=O)[C@H]2CCCN2C(=O)[C@H](Cc2ccccc2)NC(=O)C(C)(C)NC1=O [Ky-10, cyclo(-L-Ae9(Emk)-Aib-L-Phe-D-Pro-)] | 21 | 8400 | 31 | 0.095 | 
CC1(C)NC(=O)[C@H](CCCCCSCc2ccccc2)NC(=O)[C@H]2CCCN2C(=O)[C@H](Cc2ccccc2)NC1=O [Ky-69, cyclo(-L-Am7(benzyl)-Aib-L-Phe-D-Pro-)] | 11 | 120 | 6.5 | 0.041 | 
CC(=O)SCC(=O)CCCCC[C@@H]1NC(=O)[C@H]2CCCN2C(=O)[C@H](Cc2ccccc2)NC(=O)C(C)(C)NC1=O [Ky-18, cyclo(-L-Ae9(Actmk)-Aib-L-Phe-D-Pro-)] | 110 | 4300 | 190 | 0.013 | 
CC1(C)NC(=O)[C@H](CCCCCCSCC(=O)C(F)(F)F)NC(=O)[C@H]2CCCN2C(=O)[C@H](Cc2ccccc2)NC1=O [Ky-73, cyclo(-L-Am8(1,1,1-trifluoroacetonyl)-Aib-L-Phe-D-Pro-)] | 1100 | 26400 | 460 | 3.7 | 
C=CCCCCC[C@@H]1NC(=O)[C@H]2CCCN2C(=O)[C@H](Cc2ccccc2)NC(=O)C(C)(C)NC1=O [Ky-17, cyclo(-L-Ae9-Aib-L-Phe-D-Pro-)] (cyclo([Aib]F[dP][Ala(5-hexenyl)])) | > 100000 | > 100000 |  | >250 | > 100000
CSCC(=O)CCCCC[C@@H]1NC(=O)[C@H]2CCCN2C(=O)[C@H](Cc2ccccc2)NC(=O)C(C)(C)NC1=O [Ky-13, cyclo(-L-Ae9(Mtmk)-Aib-L-Phe-D-Pro-)] | 110 | 40500 | 74 | 0.13 | 
COCC(=O)CSCCCCC[C@@H]1NC(=O)[C@H]2CCCN2C(=O)[C@H](Cc2ccccc2)NC(=O)C(C)(C)NC1=O [Ky-85, cyclo(-L-Am7(methoxyacetonyl)-Aib-L-Phe-D-Pro-)] | 130 | 1200 | 77 | 0.48 | 
CC1(C)NC(=O)C(CCCCC[S+]([O-])Cc2ccccn2)NC(=O)[C@H]2CCCN2C(=O)[C@H](Cc2ccccc2)NC1=O (stereo partly drawn) [Ky-25, cyclo(-L-Am7(2-pyridylmethyl,sulfoxide)-Aib-L-Phe-D-Pro-)] |  |  |  | 1.4 | 
CC1(C)NC(=O)[C@H](CCCCCSCc2cccnc2)NC(=O)[C@H]2CCCN2C(=O)[C@H](Cc2ccccc2)NC1=O [Ky-68, cyclo(-L-Am7(3-pyridylmethyl)-Aib-L-Phe-D-Pro-)] | 400 | 3700 | 330 | 0.20 | 
CC(=O)C[S+]([O-])CCCCCC1NC(=O)[C@H]2CCCN2C(=O)[C@H](Cc2ccccc2)NC(=O)C(C)(C)NC1=O (stereo partly drawn) [Ky-86, cyclo(-L-Am7(acetonyl,sulfoxide)-Aib-L-Phe-D-Pro-)] |  |  |  | 16.8 | 
CN(C)CC(=O)CCCCC[C@@H]1NC(=O)[C@H]2CCCN2C(=O)[C@H](Cc2ccccc2)NC(=O)C(C)(C)NC1=O [Ky-14, cyclo(-L-Ae9(Dmamk)-Aib-L-Phe-D-Pro-)] | 20000 | > 100000 | 17900 | 2.4 | 
CC1(C)NC(=O)[C@H](CCCCSCC(=O)C(F)(F)F)NC(=O)[C@H]2CCCN2C(=O)[C@H](Cc2ccccc2)NC1=O [Ky-28, cyclo(-L-Am6(1,1,1-trifluoroacetonyl)-Aib-L-Phe-D-Pro-)] | 83000 | > 100000 | 18400 | 6.5 | 
CSCCCCC[C@@H]1NC(=O)[C@H]2CCCN2C(=O)[C@H](Cc2ccccc2)NC(=O)C(C)(C)NC1=O [Ky-15, cyclo(-L-Am7(methyl)-Aib-L-Phe-D-Pro-)] | > 100000 | > 100000 | > 100000 |  | 
CC1(C)NC(=O)[C@H](CCCCCSCC(=O)C(F)(F)F)NC(=O)[C@H]2CCCN2C(=O)[C@H](Cc2ccccc2)NC1=O [Ky-29, cyclo(-L-Am7(1,1,1-trifluoroacetonyl)-Aib-L-Phe-D-Pro-)] |  |  | 360 | 0.028 | 
